From PubChem BioAssay (NCI)
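Interpolation was linear, between the two tested concentrations surrounding the appropriate level; five concentrations were tested over 48 hours in 96-well plates. The concentration for 50% growth inhibition is given as GI50. TGI: total growth inhibition.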

How the values were obtained:
Test in all cases: DTP human tumour cell line panel, 48 h
SK-MEL-28 melanoma = tested on: SK-MEL-28 melanoma
UACC-62 melanoma = tested on: UACC-62 melanoma
SNB-75 CNS = tested on: SNB-75 CNS
IGROV1 ovarian = tested on: IGROV1 ovarian
SW-620 colon = tested on: SW-620 colon
BT-549 breast = tested on: BT-549 breast
M14 melanoma = tested on: M14 melanoma
SK-OV-3 ovarian = tested on: SK-OV-3 ovarian
HS 578T breast = tested on: HS 578T breast
HT29 colon = tested on: HT29 colon

Row | SMILES | GI50 (SK-MEL-28 melanoma) [µM] | TGI (SK-MEL-28 melanoma) [µM] | GI50 (UACC-62 melanoma) [µM] | TGI (UACC-62 melanoma) [µM] | GI50 (SNB-75 CNS) [µM] | TGI (SNB-75 CNS) [µM] | GI50 (IGROV1 ovarian) [µM] | TGI (IGROV1 ovarian) [µM] | GI50 (SW-620 colon) [µM] | TGI (SW-620 colon) [µM] | GI50 (BT-549 breast) [µM] | TGI (BT-549 breast) [µM] | GI50 (M14 melanoma) [µM] | TGI (M14 melanoma) [µM] | GI50 (SK-OV-3 ovarian) [µM] | TGI (SK-OV-3 ovarian) [µM] | GI50 (HS 578T breast) [µM] | TGI (HS 578T breast) [µM] | GI50 (HT29 colon) [µM] | TGI (HT29 colon) [µM]
1 | CO/N=C(\COc1ccc2oc(-c3ccccc3)cc(=O)c2c1)c1ccc(OC)cc1 | 30.7 | > 100 | 27 | 84.7 | 25.4 | 54.5 | 17.9 | 42.8 | 25.6 | > 100 | 41.2 | > 100 | 21.4 | 49.2 | 59.3 | > 100 | 35.1 | > 100 | 19.7 | 48.6
2 | COc1cc(C2=N/C(=C/c3cccs3)C(=O)O2)cc(OC)c1OC | – | > 100 | – | > 100 | – | > 100 | – | > 100 | – | > 100 | – | > 100 | – | > 100 | – | > 100 | – | > 100 | – | > 100
3 | O=C1c2ccccc2-c2c1c1c(O)cccc1n2Cc1ccccn1 | > 100 | > 100 | 20.5 | > 100 | > 100 | > 100 | 88.6 | > 100 | 42 | > 100 | 26.2 | > 100 | 70.7 | > 100 | 89 | > 100 | 33.6 | > 100 | 88.6 | > 100
4 | O=C(N/N=C/c1ccc(O)cc1O)c1cccc(Nc2ccnc(C(F)(F)F)c2)c1 | 1.83 | 16.6 | 0.33 | 7.37 | 11.3 | 52.5 | 1.28 | 27.7 | 4.07 | 21.4 | 1.45 | 50.8 | 0.925 | 8.5 | 1.22 | 18.3 | 7.71 | 46.7 | 5.14 | > 100
5 | CC(=[N-])N1CCC[C@@H](Nc2c3ccccc3nc3ccccc23)C1.[Cl][Pt].[NH-]CCC[NH-] | 0.21 | 2.31 | 0.0295 | 0.114 | 2.72 | 10.1 | 0.577 | > 100 | 0.268 | > 100 | 2.9 | 64.7 | 3.47 | 23.7 | 2.43 | > 100 | 3.33 | > 31.4 | 0.44 | > 100
6 | Cc1ccc(C(=O)/C(=C\c2ccc([N+](=O)[O-])cc2)S(=O)Cc2ccc(Cl)cc2)cc1 (stereo not given) | 1.76 | 3.4 | 1.65 | 3.22 | 1.53 | 3.25 | 1.77 | 3.45 | 1.59 | 3.44 | 1.73 | 3.22 | 1.65 | 3.19 | 9.55 | 21.3 | 2.48 | 7.39 | 1.88 | 4.3
7 | C=C1C(=O)O[C@H]2[C@H]1CC/C(COC(=O)C(C)c1ccc(CC(C)C)cc1)=C\CC[C@@]1(C)O[C@@H]21 (stereo not given in full) | 1.63 | 3 | 1.48 | 2.85 | 1.68 | 3.16 | 1.07 | 2.33 | 0.534 | 1.95 | 0.533 | 1.89 | 0.688 | 2.13 | 9.7 | 21.4 | 2.04 | 5.97 | 1.11 | 2.59
8 | C/C(O)=C(\C#N)C(=O)Nc1ccc(C(F)(F)F)cc1 | 69.5 | > 100 | 15.6 | > 100 | > 100 | > 100 | 28.4 | > 100 | 36.4 | > 100 | 51.7 | > 100 | 52.5 | > 100 | 94.5 | > 100 | 39.1 | > 100 | 44.6 | > 100
9 | Oc1ccc(C2c3ccccc3Oc3ccccc32)c2cccnc12 | 5.12 | > 100 | 1.88 | 8.07 | 6.96 | > 100 | 1.62 | > 100 | 1.17 | > 100 | 3.15 | > 100 | 1.34 | 4.21 | 1.75 | > 100 | 3.45 | > 100 | 1.1 | > 100
10 | Fc1cccc(-n2ccc(-c3ccccc3)nc2=S)c1 | 71.9 | > 100 | > 54.6 | > 100 | 26.7 | > 70.6 | 25.5 | > 62.2 | > 100 | > 100 | 10.4 | 26 | 73 | > 100 | 1.59 | 44.9 | 17.7 | 37.4 | 57.3 | > 100
11 | CCC(=O)Nc1ccc(C)c(-c2ccc(C(=O)NCC3CC3)cc2)c1 | > 25 | > 25 | > 25 | > 25 | > 25 | > 25 | > 25 | > 25 | > 25 | > 25 | > 25 | > 25 | > 25 | > 25 | > 25 | > 25 | > 25 | > 25 | > 25 | > 25
12 | NS(=O)(=O)NCCNc1nonc1C(=Nc1ccc(F)c(Br)c1)NO | 48.3 | > 100 | 25.9 | > 100 | 15.2 | > 100 | 52.3 | > 100 | 51.1 | > 100 | 40.9 | > 100 | 28.1 | > 100 | 67.4 | > 100 | 30.3 | > 100 | 66 | > 100
13 | CCc1ccc(C(=Nc2ccc(N(C)C(=O)CN3CCN(C)CC3)cc2)c2c(O)[nH]c3ccc(C(=O)OC)cc23)cc1 | 1.17 | 2.42 | 1.37 | 3.2 | 0.17 | 1.52 | 0.0714 | 1.11 | 0.259 | 1.29 | 1.32 | 2.65 | 0.368 | 1.69 | 0.245 | 1.23 | 0.169 | 1.1 | 0.247 | 3.17
14 | CC1(N)CCN(c2cnc(-c3cccc(Cl)c3Cl)c(N)n2)CC1 | 16.3 | 32.3 | 19.1 | 39.9 | 7.24 | 27 | 6.48 | > 100 | 19.3 | > 100 | 10.8 | 26.2 | 16.4 | 33.2 | 3.02 | 60.5 | 13.3 | 64 | 26.7 | > 100
15 | N#Cc1c(N)nc(N2CCOCC2)c(C#N)c1-c1ccccn1 | > 100 | > 100 | 0.0342 | 0.482 | > 88.5 | > 100 | > 52.3 | > 100 | > 100 | > 100 | > 100 | > 100 | > 100 | > 100 | > 85.9 | > 100 | > 100 | > 100 | > 100 | > 100
16 | O=C1OC(=O)C2CCCC3CCCC1C32 (stereo not given) | – | > 100 | – | > 100 | – | > 100 | – | > 100 | – | > 100 | – | > 100 | – | > 100 | – | > 100 | – | > 100 | – | > 100
17 | O=C(NO)[C@@H](Cc1ccccc1)NS(=O)(=O)c1ccc(-c2ccccc2)cc1 | > 25 | > 25 | > 25 | > 25 | > 25 | > 25 | 8.52 | > 25 | 21.2 | > 25 | > 25 | > 25 | > 25 | > 25 | > 25 | > 25 | > 25 | > 25 | > 25 | > 25
18 | CCCCCCCCCNC(=O)/C=C/c1ccc(O)c(O)c1 | 19.7 | > 100 | 15.3 | 29 | 15.4 | 85.2 | 1.1 | 5.49 | 3.06 | 30.4 | 32.4 | > 100 | 12.2 | 26.7 | 19.4 | 49.5 | 0.451 | 12.9 | 17.9 | > 100
19 | O=C(Nc1cccc(Cl)c1)c1cccc(NC2=C(Cl)C(=O)N(Cc3ccccc3)C2=O)c1 | > 100 | > 100 | 21.1 | > 100 | > 100 | > 100 | 3.12 | 9.81 | 58.6 | > 100 | 36.9 | > 100 | 18.3 | 67.3 | > 100 | > 100 | > 100 | > 100 | 55.7 | > 100
20 | O=NNc1ccc(Sc2ccc(NN=O)cn2)nc1 | – | > 100 | – | > 100 | – | > 100 | – | > 100 | – | > 100 | – | > 100 | – | > 100 | – | > 100 | – | > 100 | – | > 100
21 | COc1cc(-c2csc(NC(=O)Nc3ccc(C(F)(F)F)cc3)n2)cc(OC)c1OC | 2.22 | 5.79 | 1.99 | 5.38 | 1.43 | 5.52 | 2.86 | 13.5 | 2.19 | 5.3 | 2.22 | 6.94 | 2 | 5.1 | 2.68 | 8.33 | 2.17 | 5.47 | 2.39 | 7.08
